Data taken from publication PMC3914206.

Tests used:
Type in all cases: binding
Parameters in all cases: KINOMEscan: ABL1(F317L)-phosphorylated / KINOMEscan: ABL1(H396P)-nonphosphorylated / KINOMEscan: ABL1(H396P)-phosphorylated / KINOMEscan: ABL1(M351T)-phosphorylated / KINOMEscan: ABL1(T315I)-phosphorylated / KINOMEscan: ABL1-nonphosphorylated / KINOMEscan: ABL1-phosphorylated / KINOMEscan: ACVR2A / KINOMEscan: ACVR2B / KINOMEscan: ADCK3 / KINOMEscan: ADCK4 / KINOMEscan: AKT1 / KINOMEscan: AKT3 / KINOMEscan: ALK / KINOMEscan: ARK5 / KINOMEscan: AURKA / KINOMEscan: AURKC / KINOMEscan: BIKE / KINOMEscan: BMPR1A / KINOMEscan: BMPR1B / KINOMEscan: BMX / KINOMEscan: BRK / KINOMEscan: BRSK1 / KINOMEscan: BRSK2 / KINOMEscan: CAMK1 / KINOMEscan: CAMK1D / KINOMEscan: CAMK1G / KINOMEscan: CAMK2A / KINOMEscan: CAMK2B / KINOMEscan: AAK1 / KINOMEscan: CAMK2D / KINOMEscan: CAMK2G / KINOMEscan: ABL1(F317I)-nonphosphorylated / KINOMEscan: ABL1(F317I)-phosphorylated / KINOMEscan: ABL1(F317L)-nonphosphorylated: unit: % Ctrl
Conditions in all cases: Compound Concentration 10 µM
panel of 442 kinases [1] = molecular target: T1, panel of 442 kinases (Homo sapiens, UniProt P53779)
T1 construct: purchased KINOMEscan
T1 sequence (P53779 whole entry): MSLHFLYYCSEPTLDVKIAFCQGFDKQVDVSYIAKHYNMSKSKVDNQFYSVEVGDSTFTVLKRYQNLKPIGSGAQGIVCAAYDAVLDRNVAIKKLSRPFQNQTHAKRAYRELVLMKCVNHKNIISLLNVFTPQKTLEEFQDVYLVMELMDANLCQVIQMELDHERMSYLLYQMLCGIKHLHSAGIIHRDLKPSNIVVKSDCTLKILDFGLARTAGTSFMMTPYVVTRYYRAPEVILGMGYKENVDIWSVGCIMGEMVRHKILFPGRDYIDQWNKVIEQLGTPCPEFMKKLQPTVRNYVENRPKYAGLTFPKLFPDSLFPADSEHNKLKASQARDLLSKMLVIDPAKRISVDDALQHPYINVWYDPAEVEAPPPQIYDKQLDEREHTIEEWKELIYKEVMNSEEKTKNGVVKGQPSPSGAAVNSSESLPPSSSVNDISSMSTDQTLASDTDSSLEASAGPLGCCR
Text: (§1) We assessed the selectivity of members of this scaffold using the KINOMEscan methodology across a near comprehensive panel of 442 kinases [[18,27]].

panel of 442 kinases [2] = molecular target: T2, panel of 442 kinases (Homo sapiens, UniProt P10721, V559D/V654A)
T2 construct: purchased KINOMEscan
T2 sequence (P10721 26-976 V559D/V654A): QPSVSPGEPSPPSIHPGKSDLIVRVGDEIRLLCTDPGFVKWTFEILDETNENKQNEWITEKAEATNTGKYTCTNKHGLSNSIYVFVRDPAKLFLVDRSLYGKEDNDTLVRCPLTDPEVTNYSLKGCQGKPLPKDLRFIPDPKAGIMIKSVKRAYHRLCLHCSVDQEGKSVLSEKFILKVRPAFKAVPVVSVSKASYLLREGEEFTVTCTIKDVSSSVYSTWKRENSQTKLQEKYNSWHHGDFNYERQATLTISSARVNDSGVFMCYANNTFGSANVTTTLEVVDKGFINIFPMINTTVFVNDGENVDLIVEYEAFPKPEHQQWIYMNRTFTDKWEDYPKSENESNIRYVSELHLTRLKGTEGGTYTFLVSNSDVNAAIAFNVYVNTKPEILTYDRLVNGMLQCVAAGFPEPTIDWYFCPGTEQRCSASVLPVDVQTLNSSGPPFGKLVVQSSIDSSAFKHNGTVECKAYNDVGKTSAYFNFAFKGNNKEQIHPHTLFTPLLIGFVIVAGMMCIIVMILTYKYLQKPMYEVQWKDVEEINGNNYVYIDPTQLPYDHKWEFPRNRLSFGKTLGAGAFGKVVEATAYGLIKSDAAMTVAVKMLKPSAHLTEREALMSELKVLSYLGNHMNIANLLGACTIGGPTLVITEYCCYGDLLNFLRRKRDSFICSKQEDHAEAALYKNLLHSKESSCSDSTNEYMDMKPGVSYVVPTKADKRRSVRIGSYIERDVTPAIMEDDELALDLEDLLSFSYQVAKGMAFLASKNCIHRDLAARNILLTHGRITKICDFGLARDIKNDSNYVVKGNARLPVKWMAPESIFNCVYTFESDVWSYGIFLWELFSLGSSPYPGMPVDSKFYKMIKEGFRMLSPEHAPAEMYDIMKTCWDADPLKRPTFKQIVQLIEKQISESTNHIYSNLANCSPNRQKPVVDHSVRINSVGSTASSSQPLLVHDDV
Text: as §1

panel of 442 kinases [3] = molecular target: T3, panel of 442 kinases (Homo sapiens, UniProt P00519, M351T)
T3 construct: purchased KINOMEscan
Text: as §1

panel of 442 kinases [4] = molecular target: T4, panel of 442 kinases (Homo sapiens, UniProt O96017)
T4 construct: purchased KINOMEscan
T4 sequence (O96017 whole entry): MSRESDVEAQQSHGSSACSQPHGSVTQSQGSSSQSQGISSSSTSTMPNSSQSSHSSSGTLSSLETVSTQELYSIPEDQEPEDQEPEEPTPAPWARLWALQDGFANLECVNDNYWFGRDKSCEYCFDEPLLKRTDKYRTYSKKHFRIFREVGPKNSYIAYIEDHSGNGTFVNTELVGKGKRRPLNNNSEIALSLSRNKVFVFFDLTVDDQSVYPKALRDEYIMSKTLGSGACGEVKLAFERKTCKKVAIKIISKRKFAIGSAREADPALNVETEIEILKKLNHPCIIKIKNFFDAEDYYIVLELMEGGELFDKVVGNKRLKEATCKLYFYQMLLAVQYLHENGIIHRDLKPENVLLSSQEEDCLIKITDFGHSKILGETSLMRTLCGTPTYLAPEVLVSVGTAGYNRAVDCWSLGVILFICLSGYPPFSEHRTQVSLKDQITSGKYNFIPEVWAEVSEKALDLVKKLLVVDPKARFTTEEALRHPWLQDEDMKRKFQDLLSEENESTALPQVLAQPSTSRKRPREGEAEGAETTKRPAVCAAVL
Text: as §1

Row | SMILES | KINOMEscan: JNK3 (panel of 442 kinases [1]) | KINOMEscan: KIT(V559D,V654A) (panel of 442 kinases [2]) | KINOMEscan: ABL1(M351T)-phosphorylated (panel of 442 kinases [3]) | KINOMEscan: CHEK2 (panel of 442 kinases [4])
1 | CCOc1cc(C(=O)N2CCC(N3CCN(C)CC3)CC2)ccc1Nc1ncc2c(n1)N(C1CCCC1)c1ccccc1C(=O)N2C [Compound 26] | 74 | 100 | 89 | 100
2 | COc1cc(C(=O)N2CCC(N3CCN(C)CC3)CC2)ccc1Nc1ncc2c(n1)N1CCc3cccc(c31)C(=O)N2C [Compound 24] | 43 | – | 77 | –
3 | COc1cc(C(=O)N2CCC(N3CCN(C)CC3)CC2)ccc1Nc1ncc2c(n1)N(C)c1ccccc1C(=O)N2C [15 (LRRK2-IN-1)] | 77 | 100 | 94 | 66
4 | COc1cc(C(=O)N2CCC(N3CCN(C)CC3)CC2)ccc1Nc1ncc2c(n1)N(C1CCCC1)c1ccccc1C(=O)N2C [Compound 25, 11-cyclopentyl-2-((2-methoxy-4-(4-(4-methylpiperazin-1-yl)piperidine-1-carbonyl)phenyl)amino)-5-methyl-5H-benzo[e]pyrimido[5,4-b][1,4]diazepin-6(11H)-one] | 48 | 100 | 80 | 100
